Experimental data as given in patent US20240409585A1, “MACROCYCLIC IMMUNOMODULATORS” (priority 2021, published 2024).
Numbered stars: 1 amine (or outer) side, 2 acyl side, 3 side chain; on linkers, the order of the positions; unused ones are H or OH. Bridge positions count the residues as written; N and C are the ends. Square brackets hold non-standard residues; d marks the D form. Peptide text beside a SMILES is read from it. * marks the point of attachment. ξ: configuration not given here. Phe(4-COOH) = N[C@@H](Cc1ccc(C(=O)O)cc1)C(=O)O; X28 = O=C([C@H](Cc1ccc2ccncc2c1)N[*:1])[*:2]; Bip = N[C@@H](Cc1ccc(-c2ccccc2)cc1)C(=O)O; Phe(3-Me) = Cc1cccc(C[C@H](N)C(=O)O)c1; Gly(cPent) = N[C@H](C(=O)O)C1CCCC1; Cha = N[C@@H](CC1CCCCC1)C(=O)O; Ile(3ξ) = CCC(C)[C@H](N)C(=O)O; Thr(3ξ) = CC(O)[C@H](N)C(=O)O; Ala(CN) = N#CC[C@H](N)C(=O)O; NMeNle = CCCC[C@H](NC)C(=O)O; Carboxymethyl = O=C(O)C*; NMeA = CN[C@@H](C)C(=O)O; Nle = CCCC[C@H](N)C(=O)O; Dab = NCC[C@H](N)C(=O)O; Dap = NC[C@H](N)C(=O)O; ξC = NC(CS)C(=O)O

target: T1, PE-labeled human PD-L1-Ig binding to Jurkat cell line over-expressing human PD-1 (Jurkat-PD-1) (Homo sapiens, UniProt Q15116); assay: Jurkat-PD-1 Cell Binding High-Content Screening Assay (CBA): Method 1; conditions: Jurkat-hPD-1 cells, PE-labeled PD-L1-Ig 20 nM final; read-out: Jurkat HPDL1 PD1 IC50 (uM) (Method 1)
T1 construct: expressed in transfected cells; host or cells: Jurkat
T1 sequence (Q15116 25-288): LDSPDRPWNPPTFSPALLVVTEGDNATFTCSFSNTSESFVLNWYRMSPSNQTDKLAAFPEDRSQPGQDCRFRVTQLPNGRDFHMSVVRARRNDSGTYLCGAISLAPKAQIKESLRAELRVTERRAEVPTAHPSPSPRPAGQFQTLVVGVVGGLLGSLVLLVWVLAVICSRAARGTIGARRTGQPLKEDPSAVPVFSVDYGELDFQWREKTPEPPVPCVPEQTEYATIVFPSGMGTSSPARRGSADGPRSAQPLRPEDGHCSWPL

IC50	Structure (SMILES)
0.02 µM	CCC(C)[C@@H]1NC(=O)[C@H](Cc2ccc(-c3ccccc3)cc2)NC(=O)[C@H](C(C)C)NC(=O)[C@H](Cc2c[nH]c3ccccc23)NC(=O)[C@H](CC(=O)O)NC(=O)[C@H](Cc2ccc(O)cc2)NC(=O)[C@H](Cc2ccc3ccncc3c2)NC(=O)CSCC(C(=O)NCC(=O)O)NC(=O)[C@H](C(C)O)NC(=O)[C@H](C(C)C)NC(=O)[C@H](CC2CCCCC2)NC(=O)[C@H](CCN)NC(=O)[C@@H](CC(C)C)NC(=O)[C@H](C)N(C)C1=O (stereo partly drawn) [Compound 2219] ({CH2CO}-[X28]YDWV[Bip][Ile(3ξ)][NMeA][dL][Dab][Cha]V[Thr(3ξ)][ξC]G-OH; thioether N-14)
0.04 µM	CCC(C)[C@@H]1NC(=O)[C@H](Cc2ccc(-c3ccccc3)cc2)NC(=O)[C@H](CC(C)C)NC(=O)[C@H](Cc2c[nH]c3ccccc23)NC(=O)[C@H](CC(=O)O)NC(=O)[C@H](Cc2ccc(OCC(=O)O)cc2)NC(=O)[C@H](C(C)O)NC(=O)CSC[C@@H](C(=O)N[C@@H](CC(N)=O)C(=O)O)NC(=O)[C@H](CO)NC(=O)[C@H](C(C)C)NC(=O)[C@H](CC(C)C)NC(=O)[C@H](CCN)NC(=O)[C@@H](CC(C)C)NC(=O)[C@H](C)N(C)C1=O (stereo partly drawn) [Compound 2220] ({CH2CO}-[Thr(3ξ)]Y(Carboxymethyl)DWL[Bip][Ile(3ξ)][NMeA][dL][Dab]LVSCN-OH; thioether N-14)
0.06 µM	CCCC[C@@H]1NC(=O)[C@H](Cc2c[nH]c3ccccc23)NC(=O)[C@H](CC(=O)O)NC(=O)[C@H](Cc2ccc(OCC(=O)O)cc2)NC(=O)[C@H](C(C)O)NC(=O)CSC[C@@H](C(=O)N[C@@H](CC(N)=O)C(=O)O)NC(=O)[C@H](CO)NC(=O)[C@H](C(C)C)NC(=O)[C@H](CC(C)C)NC(=O)[C@H](CCN)NC(=O)[C@@H](CC(C)C)NC(=O)[C@H](C)N(C)C(=O)[C@H](C(C)CC)NC(=O)[C@H](Cc2ccc(-c3ccccc3)cc2)NC1=O (stereo partly drawn) [Compound 2221] ({CH2CO}-[Thr(3ξ)]Y(Carboxymethyl)DW[Nle][Bip][Ile(3ξ)][NMeA][dL][Dab]LVSCN-OH; thioether N-14)
0.29 µM	CCC(C)[C@@H]1NC(=O)[C@H](Cc2ccc(-c3ccccc3)cc2)NC(=O)[C@H](Cc2cccc(C)c2)NC(=O)[C@H](Cc2c[nH]c3ccccc23)NC(=O)[C@H](CC(=O)O)NC(=O)[C@H](Cc2ccc(OCC(=O)O)cc2)NC(=O)[C@H](C(C)O)NC(=O)CSC[C@@H](C(=O)N[C@@H](CC(N)=O)C(=O)O)NC(=O)[C@H](CO)NC(=O)[C@H](C(C)C)NC(=O)[C@H](CC(C)C)NC(=O)[C@H](CCN)NC(=O)[C@@H](CC(C)C)NC(=O)[C@H](C)N(C)C1=O (stereo partly drawn) [Compound 2222] ({CH2CO}-[Thr(3ξ)]Y(Carboxymethyl)DW[Phe(3-Me)][Bip][Ile(3ξ)][NMeA][dL][Dab]LVSCN-OH; thioether N-14)
0.04 µM	CCC(C)[C@@H]1NC(=O)[C@H](Cc2ccc(-c3ccccc3)cc2)NC(=O)[C@H](CC2CCCCC2)NC(=O)[C@H](Cc2c[nH]c3ccccc23)NC(=O)[C@H](CC(=O)O)NC(=O)[C@H](Cc2ccc(OCC(=O)O)cc2)NC(=O)[C@H](C(C)O)NC(=O)CSC[C@@H](C(=O)N[C@@H](CC(N)=O)C(=O)O)NC(=O)[C@H](CO)NC(=O)[C@H](C(C)C)NC(=O)[C@H](CC(C)C)NC(=O)[C@H](CCN)NC(=O)[C@@H](CC(C)C)NC(=O)[C@H](C)N(C)C1=O (stereo partly drawn) [Compound 2223] ({CH2CO}-[Thr(3ξ)]Y(Carboxymethyl)DW[Cha][Bip][Ile(3ξ)][NMeA][dL][Dab]LVSCN-OH; thioether N-14)
0.24 µM	CCC(C)[C@@H]1NC(=O)[C@H](Cc2ccc(-c3ccccc3)cc2)NC(=O)[C@H](CC(C)C)NC(=O)[C@H](Cc2c[nH]c3ccccc23)NC(=O)[C@H](CC(=O)O)NC(=O)[C@H](Cc2ccc(OCC(=O)O)cc2)NC(=O)[C@H](C(C)O)NC(=O)CSC[C@@H](C(=O)N[C@@H](CC(N)=O)C(=O)O)NC(=O)[C@H](CC(C)C)NC(=O)[C@H](C(C)C)NC(=O)[C@H](CC(C)C)NC(=O)[C@H](CCN)NC(=O)[C@@H](CC(C)C)NC(=O)[C@H](C)N(C)C1=O (stereo partly drawn) [Compound 2224] ({CH2CO}-[Thr(3ξ)]Y(Carboxymethyl)DWL[Bip][Ile(3ξ)][NMeA][dL][Dab]LVLCN-OH; thioether N-14)
0.08 µM	CCC(C)[C@@H]1NC(=O)[C@H](Cc2ccc(-c3ccccc3)cc2)NC(=O)[C@H](CC(C)C)NC(=O)[C@H](Cc2c[nH]c3ccccc23)NC(=O)[C@H](CC(=O)O)NC(=O)[C@H](Cc2ccc(OCC(=O)O)cc2)NC(=O)[C@H](C(C)O)NC(=O)CSC[C@@H](C(=O)N[C@@H](CC(N)=O)C(=O)O)NC(=O)[C@H](CC(=O)O)NC(=O)[C@H](C(C)C)NC(=O)[C@H](CC(C)C)NC(=O)[C@H](CCN)NC(=O)[C@@H](CC(C)C)NC(=O)[C@H](C)N(C)C1=O (stereo partly drawn) [Compound 2225] ({CH2CO}-[Thr(3ξ)]Y(Carboxymethyl)DWL[Bip][Ile(3ξ)][NMeA][dL][Dab]LVDCN-OH; thioether N-14)
0.06 µM	CCC(C)[C@@H]1NC(=O)[C@H](Cc2ccc(-c3ccccc3)cc2)NC(=O)[C@H](CC(C)C)NC(=O)[C@H](Cc2c[nH]c3ccccc23)NC(=O)[C@H](CC(=O)O)NC(=O)[C@H](Cc2ccc(OCC(=O)O)cc2)NC(=O)[C@H](C(C)O)NC(=O)CSC[C@@H](C(=O)N[C@@H](CC(N)=O)C(=O)O)NC(=O)[C@H](CC#N)NC(=O)[C@H](C(C)C)NC(=O)[C@H](CC(C)C)NC(=O)[C@H](CCN)NC(=O)[C@@H](CC(C)C)NC(=O)[C@H](C)N(C)C1=O (stereo partly drawn) [Compound 2226] ({CH2CO}-[Thr(3ξ)]Y(Carboxymethyl)DWL[Bip][Ile(3ξ)][NMeA][dL][Dab]LV[Ala(CN)]CN-OH; thioether N-14)
0.81 µM	CCC(C)[C@@H]1NC(=O)[C@H](Cc2ccc(-c3ccccc3)cc2)NC(=O)[C@H](CC(C)C)NC(=O)[C@H](Cc2c[nH]c3ccccc23)NC(=O)[C@H](CC(=O)O)NC(=O)[C@H](Cc2ccc(OCC(=O)O)cc2)NC(=O)[C@H](C(C)O)NC(=O)CSC[C@@H](C(=O)N[C@@H](CC(N)=O)C(=O)O)NC(=O)[C@H](C2CCCC2)NC(=O)[C@H](C(C)C)NC(=O)[C@H](CC(C)C)NC(=O)[C@H](CCN)NC(=O)[C@@H](CC(C)C)NC(=O)[C@H](C)N(C)C1=O (stereo partly drawn) [Compound 2227] ({CH2CO}-[Thr(3ξ)]Y(Carboxymethyl)DWL[Bip][Ile(3ξ)][NMeA][dL][Dab]LV[Gly(cPent)]CN-OH; thioether N-14)
0.12 µM	CCC(C)[C@@H]1NC(=O)[C@H](Cc2ccc(-c3ccccc3)cc2)NC(=O)[C@H](CC(C)C)NC(=O)[C@H](Cc2c[nH]c3ccccc23)NC(=O)[C@H](CC(=O)O)NC(=O)[C@H](Cc2ccc(OCC(=O)O)cc2)NC(=O)[C@H](C(C)O)NC(=O)CSC[C@@H](C(=O)N[C@@H](CC(N)=O)C(=O)O)NC(=O)[C@H](CN)NC(=O)[C@H](C(C)C)NC(=O)[C@H](CC(C)C)NC(=O)[C@H](CCN)NC(=O)[C@@H](CC(C)C)NC(=O)[C@H](C)N(C)C1=O (stereo partly drawn) [Compound 2228] ({CH2CO}-[Thr(3ξ)]Y(Carboxymethyl)DWL[Bip][Ile(3ξ)][NMeA][dL][Dab]LV[Dap]CN-OH; thioether N-14)
0.11 µM	CCCC[C@H]1C(=O)N[C@H](CC(C)C)C(=O)N[C@@H](CCN)C(=O)N[C@@H](CC(C)C)C(=O)N[C@@H](C(C)C)C(=O)N[C@@H](CO)C(=O)N[C@H](C(=O)N[C@@H](CC(N)=O)C(=O)O)CSCC(=O)N[C@@H](C(C)O)C(=O)N[C@@H](Cc2ccc(OCC(=O)O)cc2)C(=O)N[C@@H](CC(=O)O)C(=O)N[C@@H](Cc2c[nH]c3ccccc23)C(=O)N[C@@H](CC(C)C)C(=O)N[C@@H](Cc2ccc(-c3ccccc3)cc2)C(=O)N[C@@H](C(C)CC)C(=O)N1C (stereo partly drawn) [Compound 2229] ({CH2CO}-[Thr(3ξ)]Y(Carboxymethyl)DWL[Bip][Ile(3ξ)][NMeNle][dL][Dab]LVSCN-OH; thioether N-14)
0.03 µM	CCC(C)[C@@H]1NC(=O)[C@H](Cc2ccc(-c3ccccc3)cc2)NC(=O)[C@H](C(C)C)NC(=O)[C@H](Cc2c[nH]c3ccccc23)NC(=O)[C@H](CC(=O)O)NC(=O)[C@H](Cc2ccc(OCC(=O)O)cc2)NC(=O)[C@H](C(C)O)NC(=O)CSC[C@@H](C(=O)N[C@@H](CO)C(=O)O)NC(=O)[C@H](C(C)O)NC(=O)[C@H](C(C)C)NC(=O)[C@H](CC2CCCCC2)NC(=O)[C@H](CCN)NC(=O)[C@@H](CC(C)C)NC(=O)[C@H](C)N(C)C1=O (stereo partly drawn) [Compound 2230] ({CH2CO}-[Thr(3ξ)]Y(Carboxymethyl)DWV[Bip][Ile(3ξ)][NMeA][dL][Dab][Cha]V[Thr(3ξ)]CS-OH; thioether N-14)
0.02 µM	Cc1cccc(C[C@@H]2NC(=O)[C@H](CC(=O)O)NC(=O)[C@H](Cc3ccc(OCC(=O)O)cc3)NC(=O)[C@H](C(C)O)NC(=O)CSC[C@@H](C(=O)N[C@@H](CO)C(=O)O)NC(=O)[C@H](C(C)O)NC(=O)[C@H](C(C)C)NC(=O)[C@H](CC3CCCCC3)NC(=O)[C@H](CCN)NC(=O)[C@@H](CC(C)C)NC(=O)[C@H](C)N(C)C(=O)[C@H](Cc3ccc(OCC(=O)O)cc3)NC(=O)[C@H](Cc3ccc(-c4ccccc4)cc3)NC(=O)[C@H](Cc3ccc(C(=O)O)cc3)NC2=O)c1 (stereo partly drawn) [Compound 2231] ({CH2CO}-[Thr(3ξ)]Y(Carboxymethyl)D[Phe(3-Me)][Phe(4-COOH)][Bip]Y(Carboxymethyl)[NMeA][dL][Dab][Cha]V[Thr(3ξ)]CS-OH; thioether N-14)
0.01 µM	CCC(C)[C@@H]1NC(=O)[C@H](Cc2ccc(-c3ccccc3)cc2)NC(=O)[C@H](C(C)C)NC(=O)[C@H](Cc2cccc(C)c2)NC(=O)[C@H](CC(=O)O)NC(=O)[C@H](Cc2ccc(OCC(=O)O)cc2)NC(=O)[C@H](C(C)O)NC(=O)CSC[C@@H](C(=O)N[C@@H](CO)C(=O)O)NC(=O)[C@H](C(C)O)NC(=O)[C@H](C(C)C)NC(=O)[C@H](CC2CCCCC2)NC(=O)[C@H](CCN)NC(=O)[C@@H](CC(C)C)NC(=O)[C@H](C)N(C)C1=O (stereo partly drawn) [Compound 2232] ({CH2CO}-[Thr(3ξ)]Y(Carboxymethyl)D[Phe(3-Me)]V[Bip][Ile(3ξ)][NMeA][dL][Dab][Cha]V[Thr(3ξ)]CS-OH; thioether N-14)
